Active and inactive are the calls of the source. The calls are words filed in the database; no cut-off is given here.
Key:
[1] = In vivo clearance in rat; type: ADME, organism-based
Hepatitis B virus [2] = experiment: Antiviral activity against genotype B HBV infected in primary human hepatocyte assessed as reduction in […] replaced for every 2 to 3 days incubated for 12 days by multiplex chemiluminescent MSD assay; type: functional, organism-based; details: time 12.0 day
[3] = Oral bioavailability in dog at 5 mg/kg; type: ADME, organism-based, Canis lupus familiaris; details: in vivo
ASPC1 = experiment: Cytotoxicity against human AsPC1 cells assessed as inhibition of cell viability measured upto 17 uM incubated for 5 days; type: toxicity, cell-based; details: aspc1, 120 h, time 5 day
A 172 = experiment: Cytotoxicity against human A-172 cells assessed as inhibition of cell viability measured upto 17 uM incubated for 5 days; type: toxicity, cell-based; details: a 172, 120 h, time 5 day
Hepatitis B virus [4] = experiment: In vivo antiviral activity against HBV in model of HBV 1.3.32 mouse harboring integrated greater-than-genome-length HBV transgene assessed as plasma HBsAg level measured in off-treatment recovery phase at 50 mg/kg, sc qd treated for 4 weeks (reference value: 1.1 log10 ng/ml); type: functional
769-P = experiment: Cytotoxicity against human 769-P cells assessed as inhibition of cell viability measured upto 17 uM incubated for 5 days; type: toxicity, cell-based; details: 120 h, time 5 day
AN3-CA = experiment: Cytotoxicity against human AN3-CA cells assessed as inhibition of cell viability measured upto 17 uM incubated for 5 days; type: toxicity, cell-based; details: 120 h, time 5 day
A204 = experiment: Cytotoxicity against human A204 cells assessed as inhibition of cell viability measured upto 17 uM incubated for 5 days; type: toxicity, cell-based; details: a204, 120 h, time 5 day
Hepatitis B virus [5] = experiment: Antiviral activity against genotype D HBV infected in sodium taurocholate co-transporting polypeptide receptor-expressing stable HepG2 cell line assessed as suppression of HBsAg level incubated for 5 days by multiplex chemiluminescent MSD assay; type: functional, organism-based; details: HepG2, 120 h
Hepatocyte = experiment: Cytotoxicity against primary human hepatocyte assessed as change in cell morphology; type: toxicity, cell-based; details: hepatocytes
OVCAR-3 = experiment: Cytotoxicity against human OVCAR-3 cells assessed as inhibition of cell viability measured upto 17 uM incubated for 5 days; type: toxicity, cell-based; details: ovcar-3, 120 h, time 5 day
Primary hepatocyte [6] = experiment: Effect on cccDNA level in HBV infected primary human hepatocyte at 0.25 uM media replaced for every 2 to 3 days incubated for 12 days in presence of Tenofovir by Southern blot analysis; type: functional, cell-based; details: Hepatitis B virus, time 12.0 day
A498 = experiment: Cytotoxicity against human A498 cells assessed as inhibition of cell viability measured upto 17 uM incubated for 5 days; type: toxicity, cell-based; details: a498, 120 h, time 5 day
J82 = experiment: Cytotoxicity against human J82 cells assessed as inhibition of cell viability measured upto 17 uM incubated for 5 days; type: toxicity, cell-based; details: j82, 120 h, time 5 day
Huh-7 = experiment: Cytotoxicity against human Huh-7 cells assessed as inhibition of cell viability measured upto 17 uM incubated for 5 days; type: toxicity, cell-based; details: huh-7, 120 h, time 5 day
[7] = Cytotoxicity against rat NRVM cells assessed as inhibition of cell viability measured upto 17 uM incubated for 5 days; type: toxicity, cell-based; details: 120 h, time 5 day
Hepatitis B virus [8] = experiment: Antiviral activity against genotype A HBV infected in primary human hepatocyte assessed as reduction in […] replaced for every 2 to 3 days incubated for 12 days by multiplex chemiluminescent MSD assay; type: functional, organism-based; details: time 12.0 day
Hepatitis B virus [9] = experiment: Antiviral activity against genotype C HBV infected in primary human hepatocyte assessed as reduction in […] replaced for every 2 to 3 days incubated for 12 days by multiplex chemiluminescent MSD assay; type: functional, organism-based; details: time 12.0 day
HepG2 = experiment: Cytotoxicity against human HepG2 cells assessed as inhibition of cell viability measured upto 17 uM incubated for 5 days; type: toxicity, cell-based; details: hepg2, 120 h, time 5 day
[10] = In vivo clearance in cynomolgus monkey; type: ADME, organism-based, Macaca fascicularis
MT4 = experiment: Cytotoxicity against human MT4 cells assessed as inhibition of cell viability measured upto 17 uM incubated for 5 days; type: toxicity, cell-based; details: mt4, 120 h, time 5 day
Hepatitis B virus [11] = experiment: Antiviral activity against HBV genome D integrated human HepG2.2.15 cells assessed as reduction in extracellular HBsAg media replaced for every 2 to 3 days incubated for 7 days; type: functional, organism-based; details: time 7.0 day
Hepatitis B virus [12] = experiment: Antiviral activity against genotype E HBV infected in primary human hepatocyte assessed as reduction in […] replaced for every 2 to 3 days incubated for 12 days by multiplex chemiluminescent MSD assay; type: functional, organism-based; details: time 12.0 day
Hepatitis B virus [13] = experiment: Antiviral activity against HBV genome D integrated human HepAD38 cells assessed as reduction in extracellular HBsAg media replaced for every 2 to 3 days incubated for 7 days […]; type: functional, organism-based; details: time 7.0 day
PBMC = experiment: Cytotoxicity against human PBMC cells assessed as inhibition of cell viability measured upto 17 uM incubated for 5 days; type: toxicity, cell-based; details: 120 h, time 5 day
PC-3 = experiment: Cytotoxicity against human PC-3 cells assessed as inhibition of cell viability measured upto 17 uM incubated for 5 days; type: toxicity, cell-based; details: pc-3, 120 h, time 5 day
Hepatitis B virus [14] = experiment: Antiviral activity against HBV infected in primary human hepatocyte assessed as reduction in intracellular HBsAg protein at 250 nM media replaced for every 2 to 3 days incubated for 14 days by immunofluorescence microscopy; type: functional, organism-based; details: time 14.0 day
Hepatitis B virus [15] = experiment: Antiviral activity against genotype D (AD38-derived) HBV infected in primary human hepatocyte assessed as inhibition of extracellular HBsAg media replaced for every 2 to 3 days incubated for 12 days by multiplex chemiluminescent MSD assay; type: functional; details: time 12 day
[16] = Oral bioavailability in cynomolgus monkey at 5 mg/kg; type: ADME, organism-based, Macaca fascicularis; details: in vivo
MG-63 = experiment: Cytotoxicity against human MG-63 cells assessed as inhibition of cell viability measured upto 17 uM incubated for 5 days; type: toxicity, cell-based; details: mg-63, 120 h, time 5 day
Hepatitis B virus [17] = experiment: In vivo antiviral activity against HBV in model of HBV 1.3.32 mouse harboring integrated greater-than-genome-length HBV transgene assessed as reduction in plasma HBsAg level at 50 mg/kg, sc qd treated for 4 weeks (reference value: 1.1 log10 ng/ml); type: functional
[18] = In vivo clearance in dog; type: ADME, organism-based, Canis lupus familiaris
[19] = Hepatic extraction in dog; type: ADME, Canis lupus familiaris; details: read-out: ERH
[20] = Clearance in Sprague-Dawley rat at […], iv measured after 24 hrs by LC/MS/MS method; type: ADME, organism-based; details: in vivo
A-375 = experiment: Cytotoxicity against human A-375 cells assessed as inhibition of cell viability measured upto 17 uM incubated for 5 days; type: toxicity, cell-based; details: a-375, 120 h, time 5 day
[21] = Oral bioavailability in Sprague-Dawley rat after 24 hrs by LC/MS/MS method; type: ADME, organism-based; details: in vivo
[22] = Oral bioavailability in rat at 5 mg/kg; type: ADME, organism-based; details: in vivo
[23] = Lipophilicity, logD of the compound; type: physicochemical; details: octanol/water
SK-N-AS = experiment: Cytotoxicity against human SK-N-AS cells assessed as inhibition of cell viability measured upto 17 uM incubated for 5 days; type: toxicity, cell-based; details: 120 h, time 5 day
[24] = Hepatic extraction in cynomolgus monkey; type: ADME, Macaca fascicularis; details: read-out: ERH
Primary hepatocyte [25] = experiment: Effect on cccDNA level in HBV infected primary human hepatocyte at 0.25 uM media replaced for every 2 to 3 days incubated for 12 days by Southern blot analysis; type: functional, cell-based; details: Hepatitis B virus, time 12.0 day
MRC5 = experiment: Cytotoxicity against human MRC5 cells assessed as inhibition of cell viability measured upto 17 uM incubated for 5 days; type: toxicity, cell-based; details: mrc5, 120 h, time 5 day
[26] = system: Woodchuck hepatitis virus; experiment: Antiviral activity against WHV-infected Woodchucks assessed as reduction in WHV sAg level in plasma at 15 mg/kg, po qd for 12 weeks; type: functional
[27] = Hepatic extraction in rat; type: ADME; details: read-out: ERH

COCCCOc1cc2c(cc1Cl)-c1cc(=O)c(C(=O)O)cn1N(C(C)(C)C)C2
clearance [1]: 3 mL/min/kg
Activity (Hepatitis B virus [2]): Active
bioavailability [3]: > 100%
Activity (ASPC1): Non-Toxic
Activity (A 172): Non-Toxic
Activity (Hepatitis B virus [4]): 0.7 log10ng/ml
Activity (769-P): Non-Toxic
Activity (AN3-CA): Non-Toxic
Activity (A204): Non-Toxic
EC50 (Hepatitis B virus [5]): 5.8 nM
Activity (Hepatocyte): Non-Toxic
Activity (OVCAR-3): Non-Toxic
Activity (Primary hepatocyte [6]): inactive
Activity (A498): Non-Toxic
Activity (J82): Non-Toxic
Activity (Huh-7): Non-Toxic
Activity [7]: Non-Toxic
Activity (Hepatitis B virus [8]): Active
Activity (Hepatitis B virus [9]): Active
Activity (HepG2): Non-Toxic
clearance [10]: 0.533 mL/min/kg
Activity (MT4): Non-Toxic
Activity (Hepatitis B virus [11]): Active
Activity (Hepatitis B virus [12]): Active
Activity (Hepatitis B virus [13]): Active
Activity (PBMC): Non-Toxic
Activity (PC-3): Non-Toxic
Activity (Hepatitis B virus [14]): Active
inhibition (INH) (Hepatitis B virus [15]): 85%
bioavailability [16]: 48%
Activity (MG-63): Non-Toxic
Activity (Hepatitis B virus [17]): 2.2 log10ng/ml
clearance [18]: 2.17 mL/min/kg
hepatic extraction ratio [19]: 0.072
clearance [20]: 19.7 mL/min/kg
Activity (A-375): Non-Toxic
bioavailability [21]: 109%
bioavailability [22]: > 100%
logD [23]: 2
Activity (SK-N-AS): Non-Toxic
hepatic extraction ratio [24]: 0.02
Activity (Primary hepatocyte [25]): inactive
Activity (MRC5): Non-Toxic
Activity [26]: 1.4 log10ng/ml
hepatic extraction ratio [27]: 0.043

— ChEMBL document CHEMBL5335870, “Discovery of Hepatitis B Virus Surface Antigen Suppressor GS-8873” (ACS Med Chem Lett, 2024)
